Source: ChEMBL document CHEMBL5137036, “Design and synthesis of highly TRAIL expression HDAC inhibitors based on ONC201 to promote apoptosis of colorectal cancer” (Eur J Med Chem, 2022)
The source made the active and inactive calls. No cut-off for these calls is given here.

Assays:
[1] = target: Histone deacetylase 3/Nuclear receptor corepressor 2 (HDAC3/NCoR2) (Homo sapiens, UniProt O15379); experiment: Inhibition of human HDAC3/NcoR2 using RHKKAc fluorogenic peptide as substrate preincubated for 10 mins followed by substrate addition by fluorescence based analysis; format: protein-complex assay
Histone deacetylase 3/Nuclear receptor corepressor 2 (HDAC3/NCoR2), sequence (O15379 whole entry): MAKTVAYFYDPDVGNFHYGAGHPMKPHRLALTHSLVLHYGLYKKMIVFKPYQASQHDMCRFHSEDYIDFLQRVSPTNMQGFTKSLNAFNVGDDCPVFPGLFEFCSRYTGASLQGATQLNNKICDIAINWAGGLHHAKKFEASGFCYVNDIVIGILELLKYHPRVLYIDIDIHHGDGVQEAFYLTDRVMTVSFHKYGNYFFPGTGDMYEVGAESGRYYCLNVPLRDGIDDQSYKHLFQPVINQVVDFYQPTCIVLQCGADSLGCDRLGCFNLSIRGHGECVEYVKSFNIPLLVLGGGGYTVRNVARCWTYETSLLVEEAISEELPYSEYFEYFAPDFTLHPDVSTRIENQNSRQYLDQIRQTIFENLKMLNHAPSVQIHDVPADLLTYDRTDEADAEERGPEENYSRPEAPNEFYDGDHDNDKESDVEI
Histone deacetylase 3/Nuclear receptor corepressor 2 (HDAC3/NCoR2), sequence (Q9Y618 whole entry, further chain): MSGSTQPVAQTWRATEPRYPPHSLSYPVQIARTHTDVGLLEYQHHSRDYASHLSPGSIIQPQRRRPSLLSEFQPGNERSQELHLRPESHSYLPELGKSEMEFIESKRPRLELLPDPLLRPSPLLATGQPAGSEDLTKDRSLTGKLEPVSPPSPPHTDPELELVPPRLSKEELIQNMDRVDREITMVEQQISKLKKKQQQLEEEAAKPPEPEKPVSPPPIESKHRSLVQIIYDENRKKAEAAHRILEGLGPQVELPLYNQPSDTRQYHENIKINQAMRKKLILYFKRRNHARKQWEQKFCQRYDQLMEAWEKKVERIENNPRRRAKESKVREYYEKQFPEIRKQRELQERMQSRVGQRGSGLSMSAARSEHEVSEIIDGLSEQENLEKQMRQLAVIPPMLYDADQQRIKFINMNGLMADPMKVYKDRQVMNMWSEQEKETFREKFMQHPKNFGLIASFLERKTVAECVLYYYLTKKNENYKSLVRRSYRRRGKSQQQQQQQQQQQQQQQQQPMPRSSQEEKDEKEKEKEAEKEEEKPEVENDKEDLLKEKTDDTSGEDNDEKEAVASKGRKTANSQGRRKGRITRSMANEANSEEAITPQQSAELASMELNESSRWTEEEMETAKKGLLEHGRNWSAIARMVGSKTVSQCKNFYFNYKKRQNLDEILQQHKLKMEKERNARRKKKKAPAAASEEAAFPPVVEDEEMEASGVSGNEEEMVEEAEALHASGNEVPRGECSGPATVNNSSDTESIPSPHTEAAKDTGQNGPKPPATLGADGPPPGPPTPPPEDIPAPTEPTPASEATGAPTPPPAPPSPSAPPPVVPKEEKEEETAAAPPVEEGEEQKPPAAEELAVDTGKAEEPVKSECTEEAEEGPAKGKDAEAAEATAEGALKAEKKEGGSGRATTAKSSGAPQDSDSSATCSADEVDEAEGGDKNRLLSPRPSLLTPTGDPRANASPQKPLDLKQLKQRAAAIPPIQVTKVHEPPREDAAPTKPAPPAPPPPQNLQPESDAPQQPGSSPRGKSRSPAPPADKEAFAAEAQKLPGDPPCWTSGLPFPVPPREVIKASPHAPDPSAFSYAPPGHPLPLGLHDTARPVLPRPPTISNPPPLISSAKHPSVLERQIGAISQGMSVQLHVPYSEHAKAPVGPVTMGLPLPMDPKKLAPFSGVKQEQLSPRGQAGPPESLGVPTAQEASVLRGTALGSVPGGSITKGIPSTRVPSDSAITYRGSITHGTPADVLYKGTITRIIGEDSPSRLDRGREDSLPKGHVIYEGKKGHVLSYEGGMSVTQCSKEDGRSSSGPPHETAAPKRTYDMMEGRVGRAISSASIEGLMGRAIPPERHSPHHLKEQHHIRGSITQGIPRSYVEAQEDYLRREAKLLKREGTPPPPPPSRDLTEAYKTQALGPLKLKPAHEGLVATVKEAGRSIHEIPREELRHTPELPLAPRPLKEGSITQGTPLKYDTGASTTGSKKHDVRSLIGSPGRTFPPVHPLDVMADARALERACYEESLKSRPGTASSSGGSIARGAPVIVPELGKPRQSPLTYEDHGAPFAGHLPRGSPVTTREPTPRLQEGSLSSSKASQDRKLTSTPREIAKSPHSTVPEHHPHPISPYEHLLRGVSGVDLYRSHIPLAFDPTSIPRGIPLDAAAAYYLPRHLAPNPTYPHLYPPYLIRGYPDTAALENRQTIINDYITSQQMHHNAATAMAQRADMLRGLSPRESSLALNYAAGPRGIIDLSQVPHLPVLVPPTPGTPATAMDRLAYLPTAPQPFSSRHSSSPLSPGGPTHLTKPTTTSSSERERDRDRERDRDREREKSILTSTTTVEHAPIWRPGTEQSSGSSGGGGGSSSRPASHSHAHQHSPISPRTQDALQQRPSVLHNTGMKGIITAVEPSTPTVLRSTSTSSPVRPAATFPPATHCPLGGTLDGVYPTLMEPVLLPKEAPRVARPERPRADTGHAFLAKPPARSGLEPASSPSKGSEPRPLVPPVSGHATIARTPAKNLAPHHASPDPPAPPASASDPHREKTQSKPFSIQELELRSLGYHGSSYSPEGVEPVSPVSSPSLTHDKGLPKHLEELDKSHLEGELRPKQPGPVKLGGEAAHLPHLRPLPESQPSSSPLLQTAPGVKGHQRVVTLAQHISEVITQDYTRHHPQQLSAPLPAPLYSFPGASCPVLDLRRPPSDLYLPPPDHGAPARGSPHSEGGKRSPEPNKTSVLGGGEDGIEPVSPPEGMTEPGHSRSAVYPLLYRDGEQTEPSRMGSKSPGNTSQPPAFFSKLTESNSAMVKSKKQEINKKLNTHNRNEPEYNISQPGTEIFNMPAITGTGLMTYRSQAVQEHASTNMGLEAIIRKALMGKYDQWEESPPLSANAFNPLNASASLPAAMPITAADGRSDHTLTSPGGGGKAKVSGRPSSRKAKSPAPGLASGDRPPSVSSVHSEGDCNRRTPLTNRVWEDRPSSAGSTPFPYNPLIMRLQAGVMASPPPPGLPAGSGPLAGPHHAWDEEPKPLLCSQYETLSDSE

HCT-116 [2] = experiment: Induction of apoptosis in human HCT-116 cells assessed as early apoptotic cells at 0.125 uM incubated for 24 hrs by AnnexinV-FITC/PI staining based flow cytometry (reference value: 0.93 %); format: functional
HCT-116 [3] = experiment: Induction of cell cycle arrest in human HCT-116 cells assessed as accumulation of cells at S phase incubated for 12 hrs by propidium iodide staining based flow cytometric analysis; format: functional; conditions: dose 0.125-0.5 µM, DDE = dose-dependent effect
HCT-116 [4] = experiment: Effect on HDAC1 protein expression in human HCT-116 cells incubated for 12 hrs by Western blot analysis; format: functional, cell-based; conditions: dose 0.125-0.5 µM, DDE = dose-dependent effect
HCT-116 [5] = experiment: Antitumor activity against human HCT-116 cells xenografted in BALB/c mouse assessed as reduction in tumor growth at 50 mg/kg, po qd administered for 3 weeks and measured every 3 days by vernier caliper analysis; format: functional, organism-based
[6] = Toxicity in BALB/c mouse xenografted with human HCT-116 cells assessed as reduction in body weight at 12.5 to 25 mg/kg, po qd administered for 3 weeks; format: organism-based; conditions: in vivo, 504 h, dose 12.5-25 mg/kg
HCT-116 [7] = experiment: Induction of apoptosis in human HCT-116 cells assessed as increase in caspase-8 protein expression incubated for 12 hrs by Western blot analysis; format: functional, cell-based; conditions: dose 0.125-0.5 µM, DDE = dose-dependent effect
HCT-116 [8] = experiment: Effect on ac-H4 protein expression in human HCT-116 cells incubated for 12 hrs by Western blot analysis; format: functional, cell-based; conditions: dose 0.125-0.5 µM, DDE = dose-dependent effect
[9] = Toxicity in BALB/c mouse xenografted with human HCT-116 cells assessed as morphological changes in spleen at 12.5 to 25 mg/kg, po qd administered for 21 days by H & E staining based microscopic analysis; format: organism-based; conditions: in vivo, 504 h, dose 12.5-25 mg/kg, time 21 day
HCT-116 [10] = experiment: Induction of apoptosis in human HCT-116 cells assessed as early apoptotic cells at 0.25 uM incubated for 24 hrs by AnnexinV-FITC/PI staining based flow cytometry (reference value: 0.93 %); format: functional
HCT-116 [11] = experiment: Induction of apoptosis in human HCT-116 cells assessed as dead cells at 0.125 uM incubated for 24 hrs by AnnexinV-FITC/PI staining based flow cytometry (reference value: 4.62 %); format: functional
HCT-116 [12] = experiment: Induction of apoptosis in human HCT-116 cells assessed as increase in Bax protein expression incubated for 12 hrs by Western blot analysis; format: functional, cell-based; conditions: dose 0.125-0.5 µM, DDE = dose-dependent effect
HCT-116 [13] = experiment: Induction of apoptosis in human HCT-116 cells assessed as dead cells at 0.25 uM incubated for 24 hrs by AnnexinV-FITC/PI staining based flow cytometry (reference value: 4.62 %); format: functional
HCT-116 [14] = experiment: Induction of apoptosis in human HCT-116 cells assessed as viable cells at 0.5 uM incubated for 24 hrs by AnnexinV-FITC/PI staining based flow cytometry (reference value: 93.64%); format: functional; conditions: read-out: Activity
HCT-116 [15] = experiment: Induction of apoptosis in human HCT-116 cells assessed as early apoptotic cells at 0.5 uM incubated for 24 hrs by AnnexinV-FITC/PI staining based flow cytometry (reference value: 0.93 %); format: functional
HCT-116 [16] = experiment: Induction of apoptosis in human HCT-116 cells assessed as late apoptotic cells at 0.125 uM incubated for 24 hrs by AnnexinV-FITC/PI staining based flow cytometry (reference value: 0.82 %); format: functional
HCT-116 [17] = experiment: Induction of apoptosis in human HCT-116 cells assessed as viable cells at 0.125 uM incubated for 24 hrs by AnnexinV-FITC/PI staining based flow cytometry (reference value: 93.64%); format: functional; conditions: read-out: Activity
HCT-116 [18] = experiment: Effect on DR5 protein expression in human HCT-116 cells incubated for 12 hrs by Western blot analysis; format: functional, cell-based; conditions: dose 0.125-0.5 µM, DDE = dose-dependent effect

Q: For `COc1ccccc1CN1C(=O)C2=C(CCN(Cc3ccc(C(=O)Nc4ccccc4N)cc3)C2)N2CCN=C12`, which IC50 [1] is on record?
A: Its IC50 is 589 nM.

Q: And the Activity (HCT-116 [2])?
A: The Activity was 0.87%.

Q: What about the Activity (HCT-116 [3]) of the same molecule?
A: Its Activity is “Dde”.

Q: And the Activity (HCT-116 [4])?
A: The Activity was “Dde”.

Q: What about the Activity (HCT-116 [5]) of the same molecule?
A: Its Activity is “Active”.

Q: What about the Activity [6] of the same molecule?
A: Its Activity is “Non-Toxic”.

Q: What about the Activity (HCT-116 [7]) of the same molecule?
A: Its Activity is “Dde”.

Q: And the Activity (HCT-116 [8])?
A: The Activity was “Dde”.

Q: And the Activity [9]?
A: The Activity was “Non-Toxic”.

Q: And the Activity (HCT-116 [10])?
A: The Activity was 1.18%.

Q: What about the Activity (HCT-116 [11]) of the same molecule?
A: Its Activity is 6.33%.

Q: What about the Activity (HCT-116 [12]) of the same molecule?
A: The Activity was “Dde”.

Q: And the Activity (HCT-116 [13])?
A: Its Activity is 4.06%.

Q: What about the viability at 0.5 µM (HCT-116 [14]) of the same molecule?
A: Its viability at 0.5 µM is 87.2%.

Q: What about the Activity (HCT-116 [15]) of the same molecule?
A: The Activity was 1.22%.

Q: And the Activity (HCT-116 [16])?
A: The Activity was 1.35%.

Q: What about the viability at 0.125 µM (HCT-116 [17]) of the same molecule?
A: The viability at 0.125 µM was 91.5%.

Q: And the Activity (HCT-116 [18])?
A: The Activity was “Dde”.
